Results published in PubChem BioAssay AID256 (DTP/NCI, 2004).
Values joined by “and” are separate entries in the source; they are usually repeats but may differ in a detail not shown here. Identical values can stand only once. Inconclusive results and toxic doses are left out. How the source made its calls: active means survival T/C of 150% or more; inactive means T/C below 125% in these data.

Test system: CD2F1 mice, L1210 leukemia ip, survival T/C
Assay: NCI In Vivo Anticancer Drug Screen. Data for tumor model L1210 Leukemia (intraperitoneal) in CD2F1 (CDF1) mice
Details: endpoint: mean survival time, higher = longer survival
Outline: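 Activity against a transplanted murine tumor was judged by comparing the compound group with a vehicle group. The outcome in the treated animals was divided by that in the controls.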

[1] = dose: 100.0 mg/kg/injection, schedule: Q01DX009 (ip), vehicle: saline
[2] = dose: 200.0 mg/kg/injection, schedule: Q01DX009 (ip), vehicle: saline
[3] = dose: 100.0 mg/kg/injection, schedule: Q04DX003 (ip), vehicle: saline with Tween-80
[4] = dose: 200.0 mg/kg/injection, schedule: Q04DX003 (ip), vehicle: saline with Tween-80
[5] = dose: 400.0 mg/kg/injection, schedule: Q04DX003 (ip), vehicle: saline with Tween-80
[6] = dose: 100.0 mg/kg/injection, schedule: Q04DX002 (ip), vehicle: saline with Tween-80
[7] = dose: 200.0 mg/kg/injection, schedule: Q04DX002 (ip), vehicle: saline with Tween-80
[8] = dose: 400.0 mg/kg/injection, schedule: Q04DX002 (ip), vehicle: saline with Tween-80
[9] = dose: 100.0 mg/kg/injection, schedule: Q01DX001 (ip), vehicle: saline with Tween-80
[10] = dose: 200.0 mg/kg/injection, schedule: Q01DX001 (ip), vehicle: saline with Tween-80
[11] = dose: 400.0 mg/kg/injection, schedule: Q01DX001 (ip), vehicle: saline with Tween-80
[12] = dose: 6.25 mg/kg/injection, schedule: Q01DX009 (ip), vehicle: saline with Tween-80
[13] = dose: 12.5 mg/kg/injection, schedule: Q01DX009 (ip), vehicle: saline with Tween-80
[14] = dose: 25.0 mg/kg/injection, schedule: Q01DX009 (ip), vehicle: saline with Tween-80
[15] = dose: 100.0 mg/kg/injection, schedule: Q01DX009 (ip), vehicle: saline with Tween-80
[16] = dose: 200.0 mg/kg/injection, schedule: Q01DX009 (ip), vehicle: saline with Tween-80
[17] = dose: 100.0 mg/kg/injection, schedule: Q04DX003 (ip), vehicle: saline
[18] = dose: 200.0 mg/kg/injection, schedule: Q04DX003 (ip), vehicle: saline
[19] = dose: 400.0 mg/kg/injection, schedule: Q04DX003 (ip), vehicle: saline
[20] = dose: 50.0 mg/kg/injection, schedule: Q01DX009 (ip), vehicle: saline with Tween-80

Measured: T/C

Nc1nc(Cl)c2ncn(C3CC(O)C(CO)C3)c2n1 (stereo unspecified)
inactive: [1] 106 % of control | [2] 106 % of control

CCCCCC(=O)SCC(=O)OCC(=O)[C@]1(O)Cc2c(O)c3c(c(O)c2[C@@H](OC2CC(N)C(O)C(C)O2)C1)C(=O)c1c(OC)cccc1C3=O (stereo partly specified)
inactive: dose: 0.39 mg/kg/injection, schedule: Q01DX005 (ip), vehicle: water 115 % of control and 110 % of control | dose: 0.78 mg/kg/injection, schedule: Q01DX005 (ip), vehicle: water 116 % of control and 124 % of control | dose: 1.56 mg/kg/injection, schedule: Q01DX005 (ip), vehicle: water 118 % of control | dose: 6.25 mg/kg/injection, schedule: Q01DX005 (ip), vehicle: water 104 % of control

CN1CC=C(c2ccccc2)CC1
inactive: dose: 18.8 mg/kg/injection, schedule: Q04DX003 (ip), vehicle: saline 102 % of control | dose: 37.5 mg/kg/injection, schedule: Q04DX003 (ip), vehicle: saline 104 % of control | dose: 75.0 mg/kg/injection, schedule: Q01DX001 (ip), vehicle: saline 100 % of control

Fc1ccc(NC(=S)S)cc1
inactive: dose: 6.25 mg/kg/injection, schedule: Q01DX009 (ip), vehicle: saline 86 % of control | dose: 12.5 mg/kg/injection, schedule: Q01DX009 (ip), vehicle: saline 114 % of control | dose: 25.0 mg/kg/injection, schedule: Q01DX009 (ip), vehicle: saline 93 % of control

N#CCCc1c(O)ccc2ccccc12
inactive: [3] 86 % of control | [4] 92 % of control | [5] 86 % of control

O=C(O)CCOc1cc(F)c(Cl)cc1Cl
inactive: [6] 94 % of control | [7] 86 % of control | [8] 86 % of control

O=[N+]([O-])c1ccc(/C=C2/c3ccccc3-c3nc4ccccc4cc32)cc1
inactive: [9] 93 % of control | [10] 87 % of control | [11] 93 % of control

C/C(=N\Nc1ccc([N+](=O)[O-])cc1[N+](=O)[O-])C1CCCCC1
inactive: [3] 100 % of control | [4] 91 % of control | [5] 91 % of control

CCCCCCCCCCNC(=O)C[n+]1cccc(C(=O)N(CC)CC)c1
inactive: [12] 91 % of control | [13] 97 % of control | [14] 91 % of control

CCCCOC(=S)SCCSC(=S)OCCCC
inactive: [15] 101 % of control | [16] 98 % of control

COC(=O)C1(C)CSCCC1=O (stereo unspecified)
inactive: [17] 107 % of control | [18] 96 % of control | [19] 96 % of control

CCC1=CC(C)(C)CC(C)=C1 (tested in a mixture with another compound)
inactive: [20] 110 % of control | [15] 100 % of control | [3] 96 % of control | [4] 96 % of control | [5] 93 % of control

CC(=O)SCCNCC(C)(C)S
inactive: [17] 98 % of control | [18] 98 % of control | [19] 95 % of control

CC1NCCCNCCCNC(C)c2cccc1n2 (stereo unspecified)
inactive: dose: 50.0 mg/kg/injection, schedule: Q04DX002 (ip), vehicle: saline 104 % of control

CCCCOC(=O)COc1ccc(F)cc1F
inactive: [6] 95 % of control | [7] 100 % of control | [8] 92 % of control

CCCCCCCCCCCCCCCC(=O)N1CCN(C)CC1
inactive: [20] 89 % of control | [15] 91 % of control | [3] 93 % of control | [4] 90 % of control

Nc1nc(-c2cc(Br)ccc2N=NN2CCCC2)nc2ccc(Br)cc12
inactive: dose: 100.0 mg/kg/injection, schedule: Q04DX002 (ip), vehicle: Klucel (hydroxypropylcellulose) (HPC) 95 % of control | dose: 200.0 mg/kg/injection, schedule: Q04DX002 (ip), vehicle: Klucel (hydroxypropylcellulose) (HPC) 113 % of control | dose: 400.0 mg/kg/injection, schedule: Q04DX002 (ip), vehicle: Klucel (hydroxypropylcellulose) (HPC) 98 % of control

Cc1cc(N(CC(C)Br)CC(C)Br)ccc1N=Nc1ccccc1C(=O)O (stereo unspecified)
inactive: dose: 3.13 mg/kg/injection, schedule: Q01DX009 (ip), vehicle: saline with Tween-80 105 % of control and 112 % of control | dose: 6.25 mg/kg/injection, schedule: Q01DX009 (ip), vehicle: Klucel (hydroxypropylcellulose) (HPC) 106 % of control | [12] 114 % of control and 117 % of control and 109 % of control | dose: 25.0 mg/kg/injection, schedule: Q01DX009 (ip), vehicle: Klucel (hydroxypropylcellulose) (HPC) 119 % of control | [14] 86 % of control

CCCCCCCCCCCCCCCCOc1ccc(C(=O)CC(=O)OC)cc1
inactive: [9] 86 % of control | [10] 89 % of control | [11] 91 % of control

[Cl][Pt+2]([Cl])([Cl])[Cl].[NH-]C1CCCCC1.[NH-]C1CCCCC1
inactive: [13] 96 % of control | [14] 91 % of control | [20] 100 % of control | [15] 89 % of control

O=[N+]([O-])c1ccc(N/N=C2/CCSc3ccccc32)cc1
inactive: [1] 102 % of control | [2] 101 % of control | dose: 400.0 mg/kg/injection, schedule: Q01DX009 (ip), vehicle: saline 95 % of control

CCOC(=O)CN1C(=O)c2ccccc2C1=O
inactive: dose: 12.5 mg/kg/injection, schedule: Q01DX009 (ip), vehicle: other 97 % of control | dose: 25.0 mg/kg/injection, schedule: Q01DX009 (ip), vehicle: other 97 % of control | dose: 50.0 mg/kg/injection, schedule: Q01DX009 (ip), vehicle: other 98 % of control | [20] 88 % of control | dose: 100.0 mg/kg/injection, schedule: Q01DX009 (ip), vehicle: other 93 % of control | [15] 103 % of control | dose: 200.0 mg/kg/injection, schedule: Q01DX009 (ip), vehicle: other 97 % of control | [16] 92 % of control

Cn1c(CC(O)(C(F)(F)F)C(F)(F)F)cc2ccccc21
inactive: dose: 100.0 mg/kg/injection, schedule: Q01DX001 (ip), vehicle: other 106 % of control | dose: 200.0 mg/kg/injection, schedule: Q01DX001 (ip), vehicle: other 92 % of control | dose: 400.0 mg/kg/injection, schedule: Q01DX001 (ip), vehicle: other 95 % of control

CCCCC(C(=O)OCC)C(=O)c1ccccc1 (stereo unspecified) (tested in a mixture with another compound)
inactive: [3] 100 % of control

CC(C)CCC(C)C1CCC2C3CCC4CC(=O)CC4(C)C3CCC12C (stereo unspecified)
inactive: [3] 100 % of control | [4] 94 % of control | [5] 97 % of control

C#CC1(NC(=O)NC(C)(C)C)CCCCC1
inactive: [15] 93 % of control | [16] 86 % of control

CCCCCCCCCCCCCCCCNC(=O)C[N+](C)(C)Cc1ccccc1
inactive: dose: 5.0 mg/kg/injection, schedule: Q04DX003 (ip), vehicle: saline with Tween-80 100 % of control | dose: 10.0 mg/kg/injection, schedule: Q04DX003 (ip), vehicle: saline with Tween-80 101 % of control

NC(CCc1ccc2c(c1)OCO2)C(=O)O (stereo unspecified)
inactive: [9] 97 % of control | [10] 100 % of control | [11] 90 % of control

CS(=O)(=O)C(=Cc1ccccc1Cl)S(C)(=O)=O
inactive: [3] 103 % of control | [4] 95 % of control | [5] 101 % of control
